From patent US20260007758A1, “SO[…]-2 RECEPTOR (SST2R) NON-PEPTIDE DRUG CONJUGATES AND USES THEREOF” (Crinetics Pharmaceuticals, Inc., priority 2024, published 2026)
*1 amine or outer side, *2 acyl side, *3 side chain or, on linkers, in order; H or OH if unused. Where a SMILES comes first, the peptide text is derived from it. [ ]: non-standard residue; d: D form. The star is where a group is joined. X3 = Cc1cc(F)cc(-c2cnc(NCCNC(=O)CCOCCOCCOCCOCCC(=O)*)c(-c3nc4ccc(Cl)cc4[nH]3)c2N2CCC(N)CC2)c1; Dolaproine = CO[C@@H]([C@@H]1CCCN1)[C@@H](C)C(=O)O; Dil = CC[C@H](C)[C@H](NC)[C@@H](CC(=O)O)OC; PABC = O=C(OCc1ccc(N[*:1])cc1)[*:2]; X2 = C[C@@H](N*)[C@@H](O)c1ccccc1; Cit = NC(=O)NCCC[C@H](N)C(=O)O; NMeV = CN[C@H](C(=O)O)C(C)C; Ahx = NCCCCCC(=O)O

molecular target: T1, human somatostatin receptor subtype 2 (Homo sapiens, UniProt P30874); assay: Functional assay for SSTR2 agonists (HTRF cAMP); type: cell-based; settings: CHO-K1 cells stably expressing human SST2; NKH477-stimulated cAMP; 20 min at 37 C; read-out: hSST2 cAMP Avg EC50
T1 construct: expressed in transfected cells
Excerpt: General overview: All five SSTR subtypes are Gi coupled G-protein coupled receptors (GPCRs) that lead to decreases in intracellular cyclic AMP (cAMP) when activated by an agonist. Therefore, measurement of intracellular cAMP levels can be used to assess whether compounds of the invention are agonists of SSTR subtypes (John Kelly, Troy Stevens, W. Joseph Thompson, and Roland Seifert, Current Protocols in Pharmacology. 2005, 2.2.1-2.2). One example of an intracellular cAMP assay is described below.
Four days prior to the assay, 2,000 Chinese hamster ovary cells (CHO-K1, ATCC #CCL-61) stably expressing the human somatostatin receptor subtype 2 are plated in each well of a 96-well tissue culture-treated plate in Ham's F12 growth media (ThermoFisher #10-080-CM) supplemented with 10% donor bovine serum (Gemini Bio-Products #100-506), 100 U/mL penicillin; 100 ug/mL streptomycin, 2 mM L-glutamine (Gemini Bio-Products #400-110) and 0.2 mg/mL hygromycin B (GoldBio #31282-04-9). The cells are cultured at 37° C., 5% CO2 and 95% humidity. cAMP is measured with HTRF dynamic cAMP assay (Cisbio. #62AM5PEJ) per manufacturer's instructions. […] The cells are incubated for 20 minutes at 37° C. (the final concentration of the compounds of the invention are typically 0-10,000 nM). The cells are treated with 50 μL of lysis buffer (HRTF cAMP kit, Cisbio) and incubated at room temperature for 30 minutes with rotary shaking at 600 rpm, and then diluted with 150 μL of stimulation buffer and shaken for an additional five minutes at 300 rpm. The lysate is transferred to 384-well plates and incubated for 1-24 hours at room temperature, and cAMP accumulation is detected by d2-labeled cAMP and Anti-cAMP-Cryptate. The time-resolved fluorescent signal is read using a m1000 Pro (Tecan) or CLARIOStar (BMG Labtech) microplate reader, where the samples are excited with light at 340 nm and emission light is measured at 620 nm and 665 nm. The data is expressed as a calculation of the fluorescence ratio (665 nm/620 nm). The intracellular cAMP concentrations are calculated by regression to a standard curve and are plotted vs, the concentration of the compounds of the invention. The EC50 of the compounds are calculated using standard methods. All data manipulations are in GraphPad Prism v9 (GraphPad, San Diego, CA).

T1 sequence (P30874 whole entry): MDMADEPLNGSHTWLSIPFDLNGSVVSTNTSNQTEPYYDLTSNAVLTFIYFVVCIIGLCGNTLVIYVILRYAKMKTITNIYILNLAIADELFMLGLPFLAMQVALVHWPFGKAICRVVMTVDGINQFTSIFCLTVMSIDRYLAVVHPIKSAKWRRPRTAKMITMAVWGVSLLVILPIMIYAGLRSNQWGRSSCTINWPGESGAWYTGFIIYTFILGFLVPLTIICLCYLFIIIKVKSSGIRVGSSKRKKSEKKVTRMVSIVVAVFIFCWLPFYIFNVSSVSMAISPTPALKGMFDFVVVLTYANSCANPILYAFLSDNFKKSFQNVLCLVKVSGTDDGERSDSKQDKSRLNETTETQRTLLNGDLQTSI

Compound | EC50
CC[C@H](C)[C@@H]([C@@H](CC(=O)N1CCC[C@H]1[C@H](OC)[C@@H](C)C(=O)N[C@H](C)[C@@H](O)c1ccccc1)OC)N(C)C(=O)[C@@H](NC(=O)[C@H](C(C)C)N(C)C(=O)OCc1ccc(NC(=O)[C@H](CCCNC(N)=O)NC(=O)[C@@H](NC(=O)CCOCCC(=O)NCCNc2ncc(-c3cc(C)cc(F)c3)c(N3CCC(N)CC3)c2-c2nc3ccc(Cl)cc3[nH]2)C(C)C)cc1C(=O)O)C(C)C [Compound 7] | 0.26 nM
CC[C@H](C)[C@@H]([C@@H](CC(=O)N1CCC[C@H]1[C@H](OC)[C@@H](C)C(=O)N[C@H](C)[C@@H](O)c1ccccc1)OC)N(C)C(=O)[C@@H](NC(=O)[C@H](C(C)C)N(C)C(=O)OCc1ccc(NC(=O)[C@H](C)NC(=O)[C@@H](NC(=O)CCCC(=O)N(C)CC(=O)NCCNc2ncc(-c3cc(C)cc(F)c3)c(N3CCC(N)CC3)c2-c2nc3ccc(Cl)cc3[nH]2)C(C)C)c(O[C@@H]2O[C@H](C(=O)NCCN)[C@@H](O)[C@H](O)[C@H]2O)c1)C(C)C [Compound 45] | 1.3 nM
CC[C@H](C)[C@@H]([C@@H](CC(=O)N1CCC[C@H]1[C@H](OC)[C@@H](C)C(=O)N[C@H](C)[C@@H](O)c1ccccc1)OC)N(C)C(=O)[C@@H](NC(=O)[C@H](C(C)C)N(C)C(=O)OCc1ccc(NC(=O)[C@H](C)NC(=O)[C@@H](NC(=O)CCOCCC(=O)N(C)CC(=O)NCCNc2ncc(-c3cc(C)cc(F)c3)c(N3CCC(N)CC3)c2-c2cc3ccc(Cl)cc3[nH]2)C(C)C)c(O[C@@H]2O[C@H](C(=O)NCCN)[C@@H](O)[C@H](O)[C@H]2O)c1)C(C)C [Compound 46] | 0.23 nM
CC[C@H](C)[C@@H]([C@@H](CC(=O)N1CCC[C@H]1[C@H](OC)[C@@H](C)C(=O)N[C@H](C)[C@@H](O)c1ccccc1)OC)N(C)C(=O)[C@@H](NC(=O)[C@H](C(C)C)N(C)C(=O)OCc1ccc(NC(=O)[C@H](C)NC(=O)[C@@H](NC(=O)CCOCCC(=O)N(C)CC(=O)NCCNc2ncc(-c3cc(C)cc(F)c3)c(N3CCC(N)CC3)c2-c2cc3ccc(Cl)cc3[nH]2)C(C)C)c(O[C@@H]2O[C@H](C(=O)NCCN)[C@@H](O)[C@H](O)[C@H]2O)c1)C(C)C [Compound 47] | 0.31 nM
CC[C@H](C)[C@@H]([C@@H](CC(=O)N1CCC[C@H]1[C@H](OC)[C@@H](C)C(=O)N[C@H](C)[C@@H](O)c1ccccc1)OC)N(C)C(=O)[C@@H](NC(=O)[C@H](C(C)C)N(C)C(=O)OCc1ccc(NC(=O)[C@H](CCCNC(N)=O)NC(=O)[C@@H](NC(=O)CCOCCC(=O)NCCNc2ncc(-c3cc(C)cc(F)c3)c(N3CCC(N)CC3)c2-c2nc3ccc(Cl)cc3[nH]2)C(C)C)cc1C(=O)NCC(=O)O)C(C)C [Compound 60] | 0.17 nM
CC[C@H](C)[C@@H]([C@@H](CC(=O)N1CCC[C@H]1[C@H](OC)[C@@H](C)C(=O)N[C@H](C)[C@@H](O)c1ccccc1)OC)N(C)C(=O)[C@@H](NC(=O)[C@H](C(C)C)N(C)C(=O)OCc1ccc(NC(=O)[C@H](CCCNC(N)=O)NC(=O)[C@@H](NC(=O)CCCCCNC(=O)[C@H](CCC(N)=O)NC(=O)[C@H](CCC(N)=O)NC(=O)CCOCCOCCOCCOCCC(=O)NCCNc2ncc(-c3cc(C)cc(F)c3)c(N3CCC(N)CC3)c2-c2nc3ccc(Cl)cc3[nH]2)C(C)C)cc1)C(C)C [Compound 143] (X3-QQ[Ahx]V[Cit][PABC][NMeV]V[Dil][Dolaproine]-X2) | 0.4 nM
